Laboratory results reported in PMC11975020, “Chemoproteomic analysis reveals RECQL4 as a mediator of nitroalkene-dependent double-strand break repair inhibition in cancer” (Research Square, 2025).

Target: T1, RECQL4 (Homo sapiens, UniProt O94761)
T1 construct: RECQL4^449–1111 (lacking the N-terminus)
T1 sequence (O94761 449-1111): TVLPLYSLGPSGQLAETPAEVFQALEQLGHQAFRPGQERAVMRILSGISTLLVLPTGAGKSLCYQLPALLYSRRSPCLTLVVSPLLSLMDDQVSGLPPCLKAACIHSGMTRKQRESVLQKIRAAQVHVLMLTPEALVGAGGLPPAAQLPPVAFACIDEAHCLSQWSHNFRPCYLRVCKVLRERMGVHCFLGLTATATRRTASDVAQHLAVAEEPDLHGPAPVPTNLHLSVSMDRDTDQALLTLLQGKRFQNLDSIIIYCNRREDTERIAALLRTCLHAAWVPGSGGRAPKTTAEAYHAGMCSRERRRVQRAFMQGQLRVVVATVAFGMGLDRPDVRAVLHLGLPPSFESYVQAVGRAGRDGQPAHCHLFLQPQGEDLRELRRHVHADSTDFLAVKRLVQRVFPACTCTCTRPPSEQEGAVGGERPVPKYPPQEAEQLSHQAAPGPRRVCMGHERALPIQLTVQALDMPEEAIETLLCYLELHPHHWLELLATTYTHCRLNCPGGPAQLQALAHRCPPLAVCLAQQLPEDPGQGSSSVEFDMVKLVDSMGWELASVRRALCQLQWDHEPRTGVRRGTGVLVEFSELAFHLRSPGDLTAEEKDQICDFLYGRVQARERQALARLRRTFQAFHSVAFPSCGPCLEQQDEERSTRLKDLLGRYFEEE
Assay: gel-based helicase unwinding assay with purified protein; confirmed by real-time fluorescence helicase assay; LC-MS/MS adduct at Cys1052 in U2OS cells
Assay type: biochemical

CCCCCCCC/C(=C\CCCCCCCC(=O)O)[N+](=O)[O-] [OA-NO2] gave an IC50 of 252 nM.
